Source: patent publication US4515781A, “2',5'-Riboadenylate-morpholinoadenylate nucleotides” (The United States of America as represented by the …, priority 1983, dated 1985)
Entries after “also recorded” stand apart in the source; their conditions may differ.

Experiments:
[1] = system: 2-5A-dependent endoribonuclease; assay: Prevention of 2-5A-activated degradation of [3H]-encephalomyocarditis virus RNA in extracts of mouse L cells; assay type: biochemical
Text: (§1) To ascertain if the 2'-terminally modified (2'→5')oligonucleotides prevented the protein synthesis inhibitory action of 2-5A by the same mechanism as does p5'A2'p5'A2'p5'A (i.e., by preventing the activation of the 2-5A-dependent endoribonuclease), the 2-5A-enhanced degradation of [^3 H]-encephalomyocarditis virus RNA was followed in extracts of mouse L cells in the presence or absence of the modified tetramer monophosphate (12). The 2-5A-activated degradation of encephalomyocarditis virus RNA was prevented by 12; furthermore, there was good agreement between the results since in both instances a concentration of 8×10^-5 M 12 caused approximately a 1000-fold increase in the concentration of ppp5'A2'p5'A2'p5'A needed to effect 50% of the maximum inhibition.

[2] = system: poly(I)·poly(C) action (2-5A synthetase-endonuclease system); assay: Antagonism of poly(I).poly(C) protein synthesis inhibition in extracts of interferon-treated mouse L cells; assay type: biochemical
Text: (§2) The preparation of cell extracts and the techniques and conditions of cell-free protein synthesis in extracts of interferon-treated or untreated mouse L cells have been described elsewhere.
This observation implied that the inhibitory action of poly(I)·poly(C) is mediated chiefly by the 2-5A synthetase-endonuclease system. […] As observed previously with p5'A2'p5'A2'p5'A, the reversal of inhibition of poly(I)·poly(C) was not complete.

[3] = Stability of 2',5'-oligoadenylates in mouse L-cell extracts, immunochemical study; assay type: in vitro ADME
Experimental: Oligoadenylates at a final concentration of 400 nM were incubated under protein synthesis conditions (minus [^3 H]-leu and EMCV RNA) at 30° C. for 0-6 hours. Samples were removed diluted with an equal volume of phosphate-buffered saline (PBS, 0.01M sodium phosphate, pH 7.4, 0.14M NaCl) with added 0.05% polyoxyethylene sorbitan monolaurate, (PSM) and then heated at 95° C. for 10-15 minutes. After cooling, the samples were centrifuged for 1 min. at room temperature in an Eppendorf microfuge. The supernatant samples were serially diluted (three-fold) in 0.05% PSM prior to analysis in a competitive enzyme-linked antibody assay.
In a second series of experiments, the degradation of both the 5'-monophosphates and 5'-triphosphate of the terminally modified oligomers was compared to the degradation of the corresponding unmodified mono- and tri-phosphates. In this case, however, the course of reaction was followed using an immunoenzymometric assay for 2-5A and its derivatives. The antiserum employed in this study was inhibited 50% by both the unmodified and 2'-terminally modified 2',5'-oligoadenylates in the nanomolar range, the tetramer oligoadenylates being 2-5 times more reactive than the corresponding trimer species (Table 3, experimental). In contrast, the dimers were much less reactive, requiring concentrations of about 300 nM to achieve this same level of inhibition. […]

[4] = system: 2-5A-activated ribonuclease (translational inhibitory effects of ppp5'A2'p5'A2'p5'A); assay: Antagonism of 2-5A trimer triphosphate translational inhibition in mouse L cell extracts; assay type: biochemical
Experimental: as §2
This observation provided a relatively simple approach to determine if a given nucleotide or oligoribonucleotide is capable of significant binding to the 2-5A-activated ribonuclease. For this reason, the (2'→5')oligoadenylates 5'-monophosphates, 11 and 12, were evaluated first for their ability to block the translational inhibitory effects of ppp5'A2'p5'A2'p5'A in extracts of mouse L cells programmed by encephalomyocarditis virus RNA. In the experiment, the 2-5A trimer, ppp5'A2'p5'A2'p5'A, was added in varying concentrations, with or without the tetranucleotide 5'-monophosphate inhibited translation with a concentration for half-maximal response of ~2×10^-9 M in agreement with other values in the literature. However, when 12 was also present at a concentration of 8×10^-5 M, there was at least a 1000-fold increase in the concentration of 2-5A trimer triphosphate required to bring about a half-maximal inhibition of protein synthesis. […]

[5] = system: protein synthesis in mouse L cell extracts programmed by encephalomyocarditis virus RNA; assay: Inhibition of protein synthesis (translation) in extracts of mouse L cells programmed with encephalomyocarditis virus RNA; assay type: biochemical; conditions: tetramer (12) alone
Experimental: as §2
This observation provided a relatively simple approach to determine if a given nucleotide or oligoribonucleotide is capable of significant binding to the 2-5A-activated ribonuclease. For this reason, the (2'→5')oligoadenylates 5'-monophosphates, 11 and 12, were evaluated first for their ability to block the translational inhibitory effects of ppp5'A2'p5'A2'p5'A in extracts of mouse L cells programmed by encephalomyocarditis virus RNA. In the experiment, the 2-5A trimer, ppp5'A2'p5'A2'p5'A, was added in varying concentrations, with or without the tetranucleotide 5'-monophosphate inhibited translation with a concentration for half-maximal response of ~2×10^-9 M in agreement with other values in the literature. However, when 12 was also present at a concentration of 8×10^-5 M, there was at least a 1000-fold increase in the concentration of 2-5A trimer triphosphate required to bring about a half-maximal inhibition of protein synthesis.

2-5A synthetase = assay: Kinetics of 2-5A synthesis in the presence of compound 11 or 12; assay type: biochemical, mouse; conditions: standard synthetase assay conditions
Experimental: Incubation was at 30° for the designated times at which aliquots (35 μL) were removed and diluted 10× in cold H2 O. These diluted reaction mixtures were frozen at -90° until analysis.
Reaction mixture were analyzed by thin layer chromatography by spotting 2 μL of the diluted reaction mixture on a plastic PEI cullulose plate (E. Merck). The plate was developed first with solvent system D and then three times with solvent system C. […] A template of the developed film was made with aid of tracing paper, and this was used to locate the corresponding radioactive spots on the tlc plate. The plate was cut according to the positions indicated by the template, and the resulting pieces were counted with 10 mls of fluor in a standard scintillation vial. The percentage of each radioactive component by the gross radioactivity associated with all the components visualized on tlc. The position of ATP, pp5'A2'p5'A,pppA2'p5'A2'p5'A, etc. were determined from authentic markers.

[6] = target: antip5'A2'p5'A2'p5'Aserum; assay: Reactivity of 2',5'-oligoadenylates with antibody (enzyme-linked immunoassay); assay type: binding; conditions: for IC50: enzyme-linked immunoassay, read-out: IC50, concentration required to achieve a 50% inhibition of reactivity with antip5'A2'p5'A2'p5'Aserum
Text: ^a Concentration in nanomolar required to achieve a 50% inhibition of
reactivity with antip5'A2'p5'A2'p5'Aserum in an enzymelinked immunoassay.

reticulocyte lysate = conditions: compared to tetramer triphosphate; cited from earlier work
[7] = system: 2-5A-dependent endoribonuclease (RNase L); assay: 2-5A-enhanced degradation of [3H]-encephalomyocarditis virus RNA in cell extracts (activation of RNase L); assay type: biochemical, mouse
Text: as §1
The enhanced activity of the 2'-terminally modified tetramer triphosphate 13 also was observed when the degradation of [^3 H]-encephalomycarditis virus RNA in cell extracts was examined. Modified tetramer triphosphate (13) enhanced degradation of labeled RNA with a concentration of 9×10^-11 M necessary to elicit a half-maximal response compared to ppp5'A2'p5'A2'p5'A which required a concentration of 9×10^-10 M to elicit a half-maximal response. In addition, there was good correlation between these values and the corresponding concentrations response for inhibition of protein synthesis.

Compound | prevention of 2-5A-activated degradation of encephalomyocarditis virus RNA [1] | increase in the concentration of ppp5'A2'p5'A2'p5'A needed to effect 50% of the maximum inhibition ([1]; 8×10^-5 M 12) [fold] | prevention of protein synthesis inhibition caused by poly(I).poly(C) (in words) [2] | potency in preventing the inhibitory action of poly(I).poly(C) (in words) ([2]; 11 vs 12) | stability in cell-free extracts relative to unmodified 2',5'-oligoadenylates [3] | antibody reactivity during incubation ([3]; 4×10^-7 M oligomer, 6 hours of incubation) | effectiveness as antagonist of 2-5A action (in words) [4] | increase in the concentration of 2-5A trimer triphosphate required for half-maximal inhibition of protein synthesis ([4]; 12 at 8×10^-5 M) [fold] | effect on translation by itself [5] | effect on the rate of synthesis of 2-5A (2-5A synthetase) | effect on the rate of synthesis of 2-5A (2-5A synthetase; listed as "tailed" (pA)4) | IC50 [6] [nM] | antibody inhibition by mononucleotides and adenosine [6] | biological activity in reticulocyte lysate (reticulocyte lysate) | activity as activator of RNase L (in words) [7]
5'-monophosphoryladenylyl-(2'→5')-adenylyl-(2'→5')adenylyl(2'→6')(3'-aza-4'-hexyl-1',2',3',4'-tetradeoxyhexopyranos-1'-yl)adenine [Compound 12] | prevented | ~1000 | not complete | approximately equal potency | markedly more stable in cell-free extracts than the unmodified 2',5'-oligoadenylates | did not decrease even after 6 hours of incubation; also recorded: increased slightly with time | somewhat more effective than the trimer 11 in preventing 2-5A action | ≥ 1000 | no significant effect on translation | neither 11 nor 12 affected the rate of formation of 2-5A | neither "tailed" (pA)3 nor "tailed" (pA)4 had any significant effect on the rate of synthesis | 1 |  |  | 
Nc1ncnc2c1ncn2[C@@H]1O[C@H](CO)[C@@H](O)[C@H]1O [adenosine] |  |  |  |  |  |  |  |  |  |  |  |  | inhibitory only at millimolar concentrations |  | 
ppp5'A2'p5'A2'p5'A |  |  |  |  |  |  |  |  |  |  |  | 18 |  | anomalously low compared to tetramer triphosphate | quite similar as activators of RNase L
